Experimental data: ChEMBL document CHEMBL3886683, “Apoptosis signal-regulating kinase inhibitor” (2016)

What was measured:
Cytochrome P450 3A4 [1] = molecular target: T1, Cytochrome P450 3A4 (Homo sapiens, UniProt P08684); assay: Inhibition Assay: Six test compound concentrations (0.1, 0.25, 1, 2.5, 10, 25 μM in DMSO; final DMSO concentration=0.26%) are incubated with human liver microsomes (0.1 mg/mL) and NADPH (1 mM) in the presence of the probe substrate midazolam ([…]) for 5 min at 37° C. The selective CYP3A4 inhibitor, ketoconazole, is screened alongside the test compounds as a positive control.
T1 sequence (P08684 whole entry): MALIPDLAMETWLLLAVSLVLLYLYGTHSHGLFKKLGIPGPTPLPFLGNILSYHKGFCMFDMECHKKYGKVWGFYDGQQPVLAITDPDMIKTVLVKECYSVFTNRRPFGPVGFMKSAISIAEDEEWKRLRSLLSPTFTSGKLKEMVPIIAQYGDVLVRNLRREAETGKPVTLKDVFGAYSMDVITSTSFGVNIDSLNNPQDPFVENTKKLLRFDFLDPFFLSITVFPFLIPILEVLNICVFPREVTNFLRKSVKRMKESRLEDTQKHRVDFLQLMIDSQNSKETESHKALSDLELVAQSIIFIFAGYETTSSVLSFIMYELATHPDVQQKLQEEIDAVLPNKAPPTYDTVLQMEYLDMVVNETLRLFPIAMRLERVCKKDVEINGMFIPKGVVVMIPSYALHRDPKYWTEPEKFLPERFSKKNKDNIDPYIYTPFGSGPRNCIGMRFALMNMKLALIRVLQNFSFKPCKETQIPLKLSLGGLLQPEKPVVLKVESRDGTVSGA

Cytochrome P450 2C8 = molecular target: T2, Cytochrome P450 2C8 (Homo sapiens, UniProt P10632); assay: (§1) Inhibition Assay: Six test compound concentrations (0.1, 0.25, 1, 2.5, 10, 25 μM in DMSO; final DMSO concentration=0.3%) are incubated with human liver microsomes ([…]) and NADPH (1 mM) in the presence of the probe substrate paclitaxel (7.5 μM) for 30 min at 37° C. The selective CYP2C8 inhibitor, montelukast, is screened alongside the test compounds as a positive control.
T2 sequence (P10632 whole entry): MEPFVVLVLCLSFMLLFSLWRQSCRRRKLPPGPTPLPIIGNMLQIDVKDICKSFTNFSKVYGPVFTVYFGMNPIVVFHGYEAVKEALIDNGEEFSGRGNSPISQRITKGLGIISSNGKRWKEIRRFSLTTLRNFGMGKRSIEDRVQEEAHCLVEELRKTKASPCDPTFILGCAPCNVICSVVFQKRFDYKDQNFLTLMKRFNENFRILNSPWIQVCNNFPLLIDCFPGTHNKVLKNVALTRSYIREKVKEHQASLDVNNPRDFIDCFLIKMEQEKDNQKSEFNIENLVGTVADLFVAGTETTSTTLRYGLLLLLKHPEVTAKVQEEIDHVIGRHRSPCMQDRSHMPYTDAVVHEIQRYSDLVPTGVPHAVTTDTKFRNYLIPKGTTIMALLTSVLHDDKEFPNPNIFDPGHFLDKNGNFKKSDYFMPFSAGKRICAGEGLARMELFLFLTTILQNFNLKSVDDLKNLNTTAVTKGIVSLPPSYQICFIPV

Cytochrome P450 1A1 = molecular target: T3, Cytochrome P450 1A1 (Homo sapiens, UniProt P04798); assay: as §1, with “ethoxyresorufin (0.5” for “paclitaxel (7.5”, “5” for “30”, “CYP1A” for “CYP2C8”, “alpha-naphthoflavone,” for “montelukast,”
T3 sequence (P04798 whole entry): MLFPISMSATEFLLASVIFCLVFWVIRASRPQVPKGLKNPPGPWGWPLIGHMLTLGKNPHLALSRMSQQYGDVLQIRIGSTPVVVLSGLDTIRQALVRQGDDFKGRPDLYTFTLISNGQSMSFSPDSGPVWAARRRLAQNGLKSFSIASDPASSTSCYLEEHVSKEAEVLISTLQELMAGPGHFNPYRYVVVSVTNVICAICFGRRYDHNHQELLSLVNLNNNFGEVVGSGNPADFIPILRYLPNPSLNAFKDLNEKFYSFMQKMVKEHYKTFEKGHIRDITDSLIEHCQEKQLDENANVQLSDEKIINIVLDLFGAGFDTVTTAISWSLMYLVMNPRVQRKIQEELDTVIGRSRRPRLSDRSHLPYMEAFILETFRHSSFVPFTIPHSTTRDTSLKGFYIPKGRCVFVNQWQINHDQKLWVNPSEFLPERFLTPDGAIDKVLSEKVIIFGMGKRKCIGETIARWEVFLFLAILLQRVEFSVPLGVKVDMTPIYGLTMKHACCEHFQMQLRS

Cytochrome P450 3A4 [2] = molecular target: T1, Cytochrome P450 3A4; assay: Inhibition Assay: Six test compound concentrations (0.1, 0.25, 1, 2.5, 10, 25 μM in DMSO; final DMSO concentration=0.275%) are incubated with human liver microsomes (0.5 mg/mL) and NADPH (1 mM) in the presence of the probe substrate testosterone (50 μM) for 5 min at 37° C. The selective CYP3A4 inhibitor, ketoconazole, is screened alongside the test compounds as a positive control.
Cytochrome P450 2B6 = molecular target: T4, Cytochrome P450 2B6 (Homo sapiens, UniProt P20813); assay: Inhibition Assay: Six test compound concentrations (0.1, 0.25, 1, 2.5, 10, 25 μM in DMSO; final DMSO concentration=0.3%) are incubated with human liver microsomes (0.1 mg/mL) and NADPH (1 mM) in the presence of the probe substrate bupropion (110 μM) for 5 min at 37° C. The selective CYP2B6 inhibitor, ticlopidine, is screened alongside the test compounds as a positive control.
T4 sequence (P20813 whole entry): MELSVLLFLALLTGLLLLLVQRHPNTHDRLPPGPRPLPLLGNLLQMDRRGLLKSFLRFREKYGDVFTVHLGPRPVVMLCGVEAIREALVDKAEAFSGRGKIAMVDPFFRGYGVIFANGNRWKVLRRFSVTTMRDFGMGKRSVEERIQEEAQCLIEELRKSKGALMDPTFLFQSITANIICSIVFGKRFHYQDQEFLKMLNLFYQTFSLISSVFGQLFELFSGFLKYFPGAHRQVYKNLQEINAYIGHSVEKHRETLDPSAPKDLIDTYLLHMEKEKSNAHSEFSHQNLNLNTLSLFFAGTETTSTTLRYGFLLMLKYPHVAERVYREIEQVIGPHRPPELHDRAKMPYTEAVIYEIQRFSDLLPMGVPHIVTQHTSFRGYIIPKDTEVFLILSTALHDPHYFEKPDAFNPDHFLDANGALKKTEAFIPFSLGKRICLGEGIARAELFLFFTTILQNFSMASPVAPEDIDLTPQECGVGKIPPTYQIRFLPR

Cytochrome P450 2C9 = Cytochrome P450 2C9 (Homo sapiens, UniProt P11712); assay: (§2) Inhibition Assay: Six test compound concentrations (0.1, 0.25, 1, 2.5, 10, 25 μM in DMSO; final DMSO concentration=[…]) are incubated with human liver microsomes (1 mg/mL) and NADPH (1 mM) in the presence of the probe substrate tolbutamide (120 μM) for 60 min at 37° C. The selective CYP2C9 inhibitor, sulphaphenazole, is screened alongside the test compounds as a positive control.
Sequence of Cytochrome P450 2C9 (P11712 whole entry): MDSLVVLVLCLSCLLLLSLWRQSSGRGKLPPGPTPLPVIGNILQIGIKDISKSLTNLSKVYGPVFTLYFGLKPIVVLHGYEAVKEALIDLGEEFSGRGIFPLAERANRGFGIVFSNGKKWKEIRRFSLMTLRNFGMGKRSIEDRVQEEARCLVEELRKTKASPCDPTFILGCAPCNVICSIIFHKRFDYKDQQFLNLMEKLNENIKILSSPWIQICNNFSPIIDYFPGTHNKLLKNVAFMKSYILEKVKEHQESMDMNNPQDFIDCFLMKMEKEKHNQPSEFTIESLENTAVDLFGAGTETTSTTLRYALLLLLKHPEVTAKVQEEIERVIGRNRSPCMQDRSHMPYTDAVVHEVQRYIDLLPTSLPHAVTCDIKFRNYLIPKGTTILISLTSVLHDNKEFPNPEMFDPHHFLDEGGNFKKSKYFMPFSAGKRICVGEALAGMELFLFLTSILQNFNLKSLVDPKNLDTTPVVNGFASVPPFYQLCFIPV

Cytochrome P450 2C19 = Cytochrome P450 2C19 (Homo sapiens, UniProt P33261); assay: as §2, with “microsomes (0.5” for “microsomes (1”, “substrate mephenytoin (25” for “substrate tolbutamide (120”, “selective CYP2C19” for “selective CYP2C9”, “inhibitor, tranylcypromine,” for “inhibitor, sulphaphenazole,”
Sequence of Cytochrome P450 2C19 (P33261 whole entry): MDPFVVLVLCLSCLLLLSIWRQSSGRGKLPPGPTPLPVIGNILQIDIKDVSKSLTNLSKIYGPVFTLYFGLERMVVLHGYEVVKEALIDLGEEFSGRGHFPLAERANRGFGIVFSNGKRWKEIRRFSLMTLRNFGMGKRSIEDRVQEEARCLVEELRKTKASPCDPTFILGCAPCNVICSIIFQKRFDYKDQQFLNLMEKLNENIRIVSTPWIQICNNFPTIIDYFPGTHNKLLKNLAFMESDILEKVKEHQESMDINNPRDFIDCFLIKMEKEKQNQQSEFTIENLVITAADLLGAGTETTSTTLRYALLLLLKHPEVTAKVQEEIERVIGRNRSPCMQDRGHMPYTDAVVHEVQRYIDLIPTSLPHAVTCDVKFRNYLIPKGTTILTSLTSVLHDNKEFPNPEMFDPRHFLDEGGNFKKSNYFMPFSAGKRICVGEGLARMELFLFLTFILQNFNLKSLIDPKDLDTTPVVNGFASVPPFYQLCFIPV

## OCc1ncc2n1-c1ccc(Cl)cc1C(c1ccccc1F)=NC2 [ALPHA-HYDROXY-MIDAZOLAM]
Cytochrome P450 3A4 [1]
  IC50: 2.7 µM

## CC(=O)O[C@H]1C(=O)[C@@]2(C)[C@H]([C@H](OC(=O)c3ccccc3)[C@]3(O)C[C@H](OC(=O)[C@H](O)[C@@H](NC(=O)c4ccccc4)c4ccccc4)C(C)=C1C3(C)C)[C@]1(OC(C)=O)CO[C@@H]1[C@@H](O)[C@@H]2O
Cytochrome P450 2C8
  IC50: 21.6 µM

## O=c1ccc2nc3ccc(O)cc3oc-2c1
Cytochrome P450 1A1
  IC50: > 25 µM

## C[C@]12CC[C@H]3[C@@H](C[C@@H](O)C4=CC(=O)CC[C@@]43C)[C@@H]1CC[C@@H]2O [6beta-hydroxytestosterone]
Cytochrome P450 3A4 [2]
  IC50: 10.5 µM

## CC(NC(C)(C)CO)C(=O)c1cccc(Cl)c1 (configuration not stated)
Cytochrome P450 2B6
  IC50: 19.2 µM

## CCCCNC(=O)NS(=O)(=O)c1ccc(CO)cc1
Cytochrome P450 2C9
  IC50: > 25 µM

## CCC1(c2ccc(O)cc2)NC(=O)N(C)C1=O (configuration not stated)
Cytochrome P450 2C19
  IC50: > 25 µM
